Laboratory results as given in patent publication US11168052B2, “Carbamate derivative compounds, processes for preparing them and their uses” (BIO-PHARM SOLUTIONS CO., LTD., priority 2016, dated 2021).

How the values were obtained:
[1] = test system: CFA-induced pain model in rats; test: Antiallodynic activity on Complete Freund's Adjuvant (CFA)-induced inflammatory pain model; type: in vivo, Sprague-Dawley rats; conditions: 50 mg/kg intraperitoneally, von Frey threshold relative to sham, 0.5 hr after administration; for response vs control in vivo at 50 mg/kg: Rattus norvegicus, ip, read-out: Efficacy of 50 mg/kg(%)
Experimental: Male, Sprague-Dawley rats (210-250 g, Nara Bio, Korea) were habituated for 1 week before surgery and allowed free access to food and water throughout the experimentation. Room temperature and humidity were maintained at 24±2 and 50±10%, respectively.
CFA-induced inflammatory pain was induced by the procedure of Nagakura et al. (2003) and Gregory P. et al. (2010) with minor modifications. CFA (sigma, USA) was injected in the right plantar with a 100 ul volume under gaseous anesthesia with isoflurane. Sham controls were injected with 100 ul of saline, and preparation of the vehicle controls were identical to the group treated with compound, except for administration of vehicles without indentical to the vihecle control group.
Tactile sensitivity (Mechanical allodynia) was evaluated using von Frey monofilaments before and after treatment, and animals were include in the study only if the withdrawal threshold value was less than 4 g. One week after CFA injection, CFA-infused animals, sham-operated animal, and vehicle-operated animals were tested for tactile sensitivity with von Frey monofilaments, with 3 trials for each animal. All Animals were placed in a stainless steel mashe chamber and habituated for 30 min in the test cage. The tactile sensitivity for ipsilateral hind paw was measured using the up-and-down method (Dixon, 1980) with seven von Frey monofilaments (0.4, 1, 2, 4, 6, 8, and 15 g) to 3 trials. The tactile sensitivity test was followed by Dixon's method (Dixon, 1980). The 50% paw withdrawal threshold for each paw was calculated using the following formula: [Xth]log=[vFr]log+ky where [vFr] is the force of the last von Frey used, k=0.2249 which is the average interval (in log units) between the von Frey monofilaments, and y is a value that depends upon the pattern of withdrawal responses (Dixon, 1980).
Antiallodynic effect of compounds was evaluated at the dose of 50 mg/kg (n=4-6), intraperitoneally administrated in a volume of 5 ul/g bw in a vehicle of 30% (v/v) PEG or 20% (v/v) Tween 80. The test was performed peak time of efficacy (0.5 hr) after compound administration.
The relative values compared to the sham (% control) were calculated and shown in Table 5, which show an antiallodynic effect of Compound 1 on CFA-induced pain model in rats.

[2] = test system: MES (electroshock) seizure in mice; test: Anti-epilepsy activity, MES test in mouse; type: in vivo, ICR mice
Experimental: (§1) In the MES test (Ref., G. Villetti et al. Neuropharmacology 40(2001) 866-878), an electrical stimulus (mice: 50 mA, 60 Hz, 0.2 sec, and rats: 150 mA, 60 Hz, 0.2 sec in the test animal) supplied by an 11A Shocker (IITC Life Science Company) was delivered through corneal electrodes. All mice or rats assigned to any electroshock at peak time were treated with each test compound sample which was dissolved in 20% tween 80 prepared by saline solvent applied orally before the test. […] Three doses of the test sample were administered orally to 9-18 animals (3-6 mice per dose) for evaluating the respective doses at which 50% of the animals were protected from seizure (ED50). The ED50 value (median effective dose) was calculated by Litchfield and Wicoxon log-probit method which is a dose-response relationship. Experimental animals, male ICR mice and male SD rats, were purchased from OrientBio, Samtako, or Nara Biotech, Korea, and housed in cages (4-5 mice or 3 rats per cage) for 4-5 days. The range of mice body weight was between 19 and 25 grams and range of rats body weight was between 100 and 130 grams.

[3] = test system: Lithium-pilocarpine induced seizure in rats; test: Lithium-pilocarpine induced epilepsy test (LI-PILO), prevention test; type: in vivo, Sprague-Dawley rats; conditions: i.p., dose 100 mg/kg
Experimental: Male Sprague-Dawley rats (purchased from Orient Bio Inc. Korea) of body weight 175 grams were used for these studies and 3 rats per cage were housed for 4-5 days. On the day prior to SE, rats received 127 mg/kg lithium chloride (Sigma, St. Louis, Mo., U.S.A.) intraperitoneally (i.p.). Approximately 18-20 h following this treatment, rats were given an i.p. injection of the concentration capable of inducing 97% intermittent convulsions pilocarpine(Sigma, 30-43 mg/kg). An i.p. injection of 2 mg/kg methyl-scopolamine (Sigma) was administered 30 min prior to pilocarpine to block the effects of the muscarinic agonist on peripheral cholinergic receptors. Test drugs were dissolved in 20% tween80 (Sigma).
The drugs were administered intraperitoneally (i.p.) in a volume of 2 μl/g body weight. Pharmacological effects of all of the test materials were evaluated to compare test groups (n=6) with a control group (n=6). Control group was administered vehicle only. The efficacy was measured 0.5, 1, 2, or 4 hours after the administration of the test material. The time point that the most animals were protected was defined as peak time and the ED50 was determined at peak time. The animals were then transferred to observation cages and observed continuously for 90 min Seizure was elicited in approximately 95% of the control group. Protection was defined as complete absence of seizure grade 3-5 (Racine scale; Racine, 1972) over the 90-min observation period. The effective dose of the compound necessary to protect 50% of the animals against seizures compared to controls (i.e., ED50) was determined by a curve fitting program (Excel 2007, Microsoft).

[4] = test system: MES (electroshock) seizure in rats; test: Anti-epilepsy activity, MES test in rats; type: in vivo, SD rats; conditions: Rattus norvegicus, po
Experimental: as §1

[5] = po, read-out: MES test (po) efficacy %

Molecule: 8-chloro-2-hydroxy-1,2,3,4-tetrahydronaphthalen-1-yl carbamate (mixture of SR & RS) [Example 20]
- Efficacy of 50 mg/kg(%) [1]: 40.2%
- MES test (po) ED50 [2]: 31.4 mg/kg

Molecule: NC(=O)O[C@@H]1CCc2cccc(Cl)c2[C@H]1O [Example 4, (1R, 2R)-8-chloro-1-hydroxy-1,2,3,4-tetrahydronaphthalen-2-yl carbamate]
- ED50 ([2]; po): 80.6 mg/kg

Molecule: NC(=O)O[C@@H]1CCc2ccc(Cl)cc2[C@@H]1O [Example 6, (1S, 2R)-7-chloro-1-hydroxy-1,2,3,4-tetrahydronaphthalen-2-yl carbamate]
- response vs control in vivo at 50 mg/kg [1]: 26.8%
- responders at 100 mg/kg [2, 5]: 33.3%

Molecule: NC(=O)O[C@H]1CCc2ccc(Cl)cc2[C@H]1O [Example 7]
- response vs control in vivo at 50 mg/kg [1]: 28.6%
- responders at 150 mg/kg ([2]; po, dose 150 mg/kg, read-out: MES test (po) efficacy %): 100%

Molecule: NC(=O)O[C@@H]1CCc2cc(Cl)ccc2[C@@H]1O [Example 8, (1S, 2R)-6-chloro-1-hydroxy-1,2,3,4-tetrahydronaphthalen-2-yl carbamate]
- responders at 100 mg/kg [2, 5]: 100%

Molecule: NC(=O)O[C@H]1CCc2cc(Cl)ccc2[C@H]1O [Example 9, (1R, 2S)-6-chloro-1-hydroxy-1,2,3,4-tetrahydronaphthalen-2-yl carbamate]
- response vs control in vivo at 50 mg/kg [1]: 27.5%

Molecule: NC(=O)O[C@@H]1CCc2cccc(I)c2[C@@H]1O [Example 12, (1S, 2R)-1-hydroxy-8-iodo-1,2,3,4-tetrahydronaphthalen-2-yl carbamate]
- response vs control in vivo at 50 mg/kg [1]: 38.5%
- responders at 100 mg/kg [2, 5]: 100%

Molecule: NC(=O)O[C@H]1CCc2cccc(I)c2[C@H]1O [Example 13, (1R, 2S)-1-hydroxy-8-iodo-1,2,3,4-tetrahydronaphthalen-2-yl carbamate]
- response vs control in vivo at 50 mg/kg [1]: 43.1%
- responders at 100 mg/kg [2, 5]: 33.3%

Molecule: NC(=O)O[C@@H]1CCc2ccccc2[C@@H]1O [Example 14, (1S, 2R)-1-hydroxy-1,2,3,4-tetrahydronaphthalen-2-yl carbamate]
- responders at 100 mg/kg [2, 5]: 100%

Molecule: NC(=O)O[C@H]1c2ccccc2CC[C@H]1O [Example 16, (1S, 2R)-2-hydroxy-1,2,3,4-tetrahydronaphthalen-1-yl carbamate]
- responders at 100 mg/kg [2, 5]: 50%

Molecule: NC(=O)O[C@H]1c2cc(Cl)ccc2CC[C@H]1O [Example 21, (1S, 2R)-7-chloro-2-hydroxy-1,2,3,4-tetrahydronaphthalen-1-yl carbamate]
- response vs control in vivo at 50 mg/kg [1]: 28.9%
- responders at 100 mg/kg [2, 5]: 33.3%

Molecule: NC(=O)O[C@@H]1c2cc(Cl)ccc2CC[C@@H]1O [Example 22, (1R, 2S)-7-chloro-2-hydroxy-1,2,3,4-tetrahydronaphthalen-1-yl carbamate]
- response vs control in vivo at 50 mg/kg [1]: 35.7%
- responders at 100 mg/kg [2, 5]: 100%

Molecule: NC(=O)O[C@H]1c2ccc(Cl)cc2CC[C@H]1O [Example 23, (1S, 2R)-6-chloro-2-hydroxy-1,2,3,4-tetrahydronaphthalen-1-yl carbamate]
- responders at 100 mg/kg [2, 5]: 33.3%

Molecule: NC(=O)O[C@H]1c2c(I)cccc2CC[C@H]1O [Example 27, (1S, 2R)-2-hydroxy-8-iodo-1,2,3,4-tetrahydronaphthalen-1-yl carbamate]
- response vs control in vivo at 50 mg/kg [1]: 37.8%
- responders at 200 mg/kg ([2]; po, dose 200 mg/kg, read-out: MES test (po) efficacy %): 100%

Molecule: NC(=O)O[C@@H]1c2c(I)cccc2CC[C@@H]1O [Example 28, (1R, 2S)-2-hydroxy-8-iodo-1,2,3,4-tetrahydronaphthalen-1-yl carbamate]
- response vs control in vivo at 50 mg/kg [1]: 42.1%
- responders at 100 mg/kg [2, 5]: 100%

Molecule: NC(=O)O[C@@H]1CCc2cccc(Cl)c2[C@@H]1OC(N)=O [Example 29, (1S, 2R)-8-chloro-1,2,3,4-tetrahydronaphthalen-1,2-diyldicarbamate]
- response vs control in vivo at 50 mg/kg [1]: 30.3%
- responders at 100 mg/kg [2, 5]: 66.6%

Molecule: NC(=O)O[C@H]1CCc2cccc(Cl)c2[C@H]1OC(N)=O [Example 30, (1R, 2S)-8-chloro-1,2,3,4-tetrahydronaphthalen-1,2-diyl dicarbamate]
- response vs control in vivo at 50 mg/kg [1]: 28.4%
- responders at 400 mg/kg ([2]; po, dose 400 mg/kg, read-out: MES test (po) efficacy %): 33.3%

Molecule: NC(=O)O[C@@H]1CCc2cccc(I)c2[C@@H]1OC(N)=O [Example 36, (1S, 2R)-8-iodo-1,2,3,4-tetrahydronaphthalen-1,2-diyl dicarbamate]
- response vs control in vivo at 50 mg/kg [1]: 72.2%
- responders at 300 mg/kg [2, 5]: 33.3%

Molecule: NC(=O)O[C@H]1CCc2cccc(I)c2[C@H]1OC(N)=O [Example 37, (1R, 2S)-8-iodo-1,2,3,4-tetrahydronaphthalen-1,2-diyl dicarbamate]
- responders at 300 mg/kg [2, 5]: 33.3%

Molecule: NC(=O)O[C@@H]1CCc2ccccc2[C@@H]1OC(N)=O [Example 38, (1S, 2R)-1,2,3,4-tetrahydronaphthalen-1,2-diyl dicarbamate]
- responders at 100 mg/kg [2, 5]: 25%

Molecule: COCO[C@H]1c2c(Cl)cccc2CC[C@H]1OC(N)=O [Example 40, (1S, 2R)-8-chloro-1-(methoxymethoxy)-1,2,3,4-tetrahydronaphthalen-2-yl carbamate]
- responders at 100 mg/kg [2, 5]: 100%
- Lithium pilocarpine model (pre) efficacy % [3]: 66.6%

Molecule: NC(=O)O[C@H]1Cc2cccc(F)c2[C@H]1O [Example 56, (1R, 2S)-7-fluoro-1-hydroxy-2,3-dihydro-1H-inden-2-yl carbamate]
- response vs control in vivo at 50 mg/kg [1]: 43.2%
- ED50 ([2]; po): 45.6 mg/kg

Molecule: NC(=O)O[C@H]1c2cccc(Cl)c2C[C@H]1O [Example 62, (1S, 2R)-4-chloro-2-hydroxy-2,3-dihydro-1H-inden-1-yl carbamate]
- ED50 ([2]; po): 53.1 mg/kg
- ED50 [4]: 24.5 mg/kg

Molecule: NC(=O)O[C@@H]1Cc2c(Cl)cccc2[C@@H]1O [Example 68, (1S, 2R)-4-chloro-1-hydroxy-2,3-dihydro-1H-inden-2-yl carbamate]
- ED50 ([2]; po): 61.2 mg/kg
- ED50 [4]: 14.4 mg/kg

Molecule: NC(=O)O[C@H]1c2c(F)cccc2C[C@H]1O [Example 69, (1S, 2R)-7-fluoro-2-hydroxy-2,3-dihydro-1H-inden-1-yl carbamate]
- responders at 100 mg/kg [2, 5]: 33.3%

Molecule: COCO[C@@H]1c2c(Cl)cccc2C[C@@H]1OC(N)=O [Example 72, (1R, 2S)-7-chloro-1-(methoxymethoxy)-2,3-dihydro-1H-inden-2-yl carbamate]
- response vs control in vivo at 50 mg/kg [1]: 21.4%

Molecule: COCO[C@H]1Cc2cccc(Cl)c2[C@H]1OC(N)=O [Example 76, (1R, 2S)-7-chloro-2-(methoxymethoxy)-2,3-dihydro-1H-inden-1-yl carbamate]
- response vs control in vivo at 50 mg/kg [1]: 59.2%
- responders at 100 mg/kg [2, 5]: 100%

Molecule: NC(=O)O[C@H]1Cc2cccc(Cl)c2[C@H]1OC(N)=O [Example 78, (1R, 2S)-7-chloro-2,3-dihydro-1H-inden-1,2-diyl dicarbamate]
- response vs control in vivo at 50 mg/kg [1]: 62.3%
- responders at 100 mg/kg [2, 5]: 33.3%
